Test results as given in patent publication US9963442B2, “Pyridones as herbicides” (E I DU PONT DE NEMOURS AND COMPANY, priority 2014, dated 2018).

What was measured:
Assay type in all cases: in vivo
[1] = test system: Italian ryegrass (Lolium multiflorum); assay: Test A preemergence, directed soil spray; conditions: approx. 10 days
Outline: (§1)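 Greenhouse pot test in loam–sand blend. Preemergence treatment by directed soil spray at planting; postemergence spray on one- to two-leaf plants 2–10 cm high. Rated ~10 days later against untreated controls on a 0–100 scale, where 0 means no effect.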

[2] = test system: barnyardgrass (Echinochloa crus-galli); assay: Test A preemergence, directed soil spray; conditions: approx. 10 days
Outline: as §1

[3] = test system: giant foxtail (Setaria faberii); assay: Test A preemergence, directed soil spray; conditions: approx. 10 days
Outline: as §1

[4] = test system: kochia (Kochia scoparia); assay: Test A preemergence, directed soil spray; conditions: approx. 10 days
Outline: as §1

[5] = test system: pigweed (Amaranthus retroflexus); assay: Test A preemergence, directed soil spray; conditions: approx. 10 days
Outline: as §1

[6] = test system: ragweed (common ragweed, Ambrosia elatior); assay: Test A preemergence, directed soil spray; conditions: approx. 10 days
Outline: as §1

[7] = test system: Italian ryegrass (Lolium multiflorum); assay: Test A postemergence application; conditions: approx. 10 days
Outline: as §1

[8] = test system: barnyardgrass (Echinochloa crus-galli); assay: Test A postemergence application; conditions: approx. 10 days
Outline: as §1

[9] = test system: blackgrass (Alopecurus myosuroides); assay: Test A postemergence application; conditions: approx. 10 days
Outline: as §1

[10] = test system: corn (Zea mays); assay: Test A postemergence application; conditions: approx. 10 days
Outline: as §1

[11] = test system: galium (catchweed bedstraw, Galium aparine); assay: Test A postemergence application; conditions: approx. 10 days
Outline: as §1

[12] = test system: giant foxtail (Setaria faberii); assay: Test A postemergence application; conditions: approx. 10 days
Outline: as §1

[13] = test system: kochia (Kochia scoparia); assay: Test A postemergence application; conditions: approx. 10 days
Outline: as §1

[14] = test system: pigweed (Amaranthus retroflexus); assay: Test A postemergence application; conditions: approx. 10 days
Outline: as §1

[15] = test system: blackgrass (Alopecurus myosuroides); assay: Test C postemergence; conditions: scale 0 to 100, 0 is no effect, 100 is complete control
Description: (§2) Seeds of plant species selected from blackgrass (Alopecurus myosuroides), Italian ryegrass (Lolium multiflorum), winter wheat (Triticum aestivum), galium (catchweed bedstraw, Galium aparine), corn (Zea mays), large (Lg) crabgrass (Digitaria sanguinalis), giant foxtail (Setaria faberii), johnsongrass (Sorghum halepense), lambsquarters (Chenopodium album), morningglory (Ipomoea coccinea), yellow nutsedge (Cyperus esculentus), pigweed (Amaranthus retroflexus), ragweed (common ragweed, Ambrosia elatior), soybean (Glycine max), barnyardgrass (Echinochloa crus-galli), oilseed rape (Brassica napus), waterhemp (common waterhemp, Amaranthus rudis), and velvetleaf (Abutilon theophrasti) were planted into a blend of loam soil and sand and treated preemergence with test chemicals formulated in a non-phytotoxic solvent mixture which included a surfactant. At the same time, plants selected from these crop and weed species and also chickweed (common chickweed, Stellaria media), kochia (Kochia scoparia), and wild oat (Avena fatua), were planted in pots containing Sunshine Redi-Earth® planting medium comprising spaghnum peat moss, vermiculite, starter nutrients and dolomitic limestone and treated with postemergence applications of test chemicals formulated in the same manner. Plants ranged in height from 2 to 18 cm (1- to 4-leaf stage) for postemergence treatments. Treated plants and controls were maintained in a greenhouse for 13 to 15 days, after which time all species were compared to controls and visually evaluated. Plant response ratings, summarized in Table C, are based on a scale of 0 to 100 where 0 is no effect and 100 is complete control. A dash (-) response means no test result.

[16] = test system: giant foxtail (Setaria faberii); assay: Test C postemergence; conditions: scale 0 to 100, 0 is no effect, 100 is complete control
Description: as §2

[17] = test system: johnsongrass (Sorghum halepense); assay: Test C postemergence; conditions: scale 0 to 100, 0 is no effect, 100 is complete control
Description: as §2

[18] = test system: lambsquarters (Chenopodium album); assay: Test C postemergence; conditions: scale 0 to 100, 0 is no effect, 100 is complete control
Description: as §2

[19] = test system: large (Lg) crabgrass (Digitaria sanguinalis); assay: Test C postemergence; conditions: scale 0 to 100, 0 is no effect, 100 is complete control
Description: as §2

[20] = test system: oilseed rape (Brassica napus); assay: Test C postemergence; conditions: scale 0 to 100, 0 is no effect, 100 is complete control
Description: as §2

[21] = test system: ragweed (common ragweed, Ambrosia elatior); assay: Test C postemergence; conditions: scale 0 to 100, 0 is no effect, 100 is complete control
Description: as §2

[22] = test system: waterhemp (common waterhemp, Amaranthus rudis); assay: Test C postemergence; conditions: scale 0 to 100, 0 is no effect, 100 is complete control
Description: as §2

[23] = test system: winter wheat (Triticum aestivum); assay: Test C postemergence; conditions: scale 0 to 100, 0 is no effect, 100 is complete control
Description: as §2

O=c1cccc(Oc2ncc(Cl)cn2)n1-c1ccc(C(F)(F)F)cc1 [Compound 10]
30: Plant response rating (0 to 100 scale, 0 no effect, 100 complete control), Kochia ([4]; 31 g ai/ha) | Plant response rating (0 to 100 scale, 0 no effect, 100 complete control), Blackgrass ([9]; 31 g ai/ha) | Plant response rating (0 to 100 scale, 0 no effect, 100 complete control), Corn ([10]; 125 g ai/ha) | Plant response rating (0 to 100 scale, 0 no effect, 100 complete control), Galium ([11]; 31 g ai/ha) | Plant response rating, Blackgrass ([15]; 62 g ai/ha)
60: Plant response rating (0 to 100 scale, 0 no effect, 100 complete control), Kochia ([4]; 125 g ai/ha) | Plant response rating (0 to 100 scale, 0 no effect, 100 complete control), Ryegrass, Italian ([7]; 125 g ai/ha) | Plant response rating, Crabgrass, Large ([19]; 62 g ai/ha) | Plant response rating, Ragweed ([21]; 62 g ai/ha)
75: Plant response rating, Lambsquarters ([18]; 31 g ai/ha) | Plant response rating, Lambsquarters ([18]; 62 g ai/ha) | Plant response rating, Waterhemp ([22]; 16 g ai/ha)
10: Plant response rating (0 to 100 scale, 0 no effect, 100 complete control), Ryegrass, Italian ([1]; 31 g ai/ha) | Plant response rating (0 to 100 scale, 0 no effect, 100 complete control), Ragweed ([6]; 125 g ai/ha) | Plant response rating, Blackgrass ([15]; 16 g ai/ha) | Plant response rating, Blackgrass ([15]; 31 g ai/ha) | Plant response rating, Foxtail, Giant ([16]; 16 g ai/ha) | Plant response rating, Foxtail, Giant ([16]; 62 g ai/ha) | Plant response rating, Johnsongrass ([17]; 31 g ai/ha) | Plant response rating, Johnsongrass ([17]; 62 g ai/ha) | Plant response rating, Wheat ([23]; 62 g ai/ha) | Plant response rating, Wheat ([23]; 125 g ai/ha)
98: Plant response rating, Waterhemp ([22]; 62 g ai/ha) | Plant response rating, Waterhemp ([22]; 125 g ai/ha)
40: Plant response rating (0 to 100 scale, 0 no effect, 100 complete control), Barnyardgrass ([8]; 31 g ai/ha)
25: Plant response rating, Blackgrass ([15]; 125 g ai/ha) | Plant response rating, Johnsongrass ([17]; 125 g ai/ha) | Plant response rating, Crabgrass, Large ([19]; 16 g ai/ha) | Plant response rating, Oilseed Rape ([20]; 31 g ai/ha) | Plant response rating, Ragweed ([21]; 16 g ai/ha) | Plant response rating, Ragweed ([21]; 31 g ai/ha)
90: Plant response rating (0 to 100 scale, 0 no effect, 100 complete control), Barnyardgrass ([2]; 125 g ai/ha) | Plant response rating (0 to 100 scale, 0 no effect, 100 complete control), Barnyardgrass ([8]; 125 g ai/ha) | Plant response rating (0 to 100 scale, 0 no effect, 100 complete control), Foxtail, Giant ([12]; 125 g ai/ha) | Plant response rating (0 to 100 scale, 0 no effect, 100 complete control), Kochia ([13]; 125 g ai/ha) | Plant response rating (0 to 100 scale, 0 no effect, 100 complete control), Pigweed ([14]; 125 g ai/ha) | Plant response rating, Lambsquarters ([18]; 125 g ai/ha)
15: Plant response rating, Foxtail, Giant ([16]; 31 g ai/ha)
0: Plant response rating (0 to 100 scale, 0 no effect, 100 complete control), Ragweed ([6]; 31 g ai/ha) | Plant response rating (0 to 100 scale, 0 no effect, 100 complete control), Ryegrass, Italian ([7]; 31 g ai/ha) | Plant response rating, Wheat ([23]; 16 g ai/ha)
80: Plant response rating (0 to 100 scale, 0 no effect, 100 complete control), Galium ([11]; 125 g ai/ha) | Plant response rating (0 to 100 scale, 0 no effect, 100 complete control), Kochia ([13]; 31 g ai/ha) | Plant response rating, Crabgrass, Large ([19]; 125 g ai/ha) | Plant response rating, Oilseed Rape ([20]; 62 g ai/ha) | Plant response rating, Oilseed Rape ([20]; 125 g ai/ha) | Plant response rating, Waterhemp ([22]; 31 g ai/ha)
5: Plant response rating, Johnsongrass ([17]; 16 g ai/ha) | Plant response rating, Oilseed Rape ([20]; 16 g ai/ha) | Plant response rating, Wheat ([23]; 31 g ai/ha)
100: Plant response rating (0 to 100 scale, 0 no effect, 100 complete control), Foxtail, Giant ([3]; 125 g ai/ha) | Plant response rating (0 to 100 scale, 0 no effect, 100 complete control), Pigweed ([5]; 125 g ai/ha)
20: Plant response rating (0 to 100 scale, 0 no effect, 100 complete control), Corn ([10]; 31 g ai/ha) | Plant response rating, Foxtail, Giant ([16]; 125 g ai/ha)
50: Plant response rating (0 to 100 scale, 0 no effect, 100 complete control), Ryegrass, Italian ([1]; 125 g ai/ha) | Plant response rating (0 to 100 scale, 0 no effect, 100 complete control), Barnyardgrass ([2]; 31 g ai/ha) | Plant response rating (0 to 100 scale, 0 no effect, 100 complete control), Pigweed ([5]; 31 g ai/ha) | Plant response rating (0 to 100 scale, 0 no effect, 100 complete control), Blackgrass ([9]; 125 g ai/ha) | Plant response rating (0 to 100 scale, 0 no effect, 100 complete control), Foxtail, Giant ([12]; 31 g ai/ha)
65: Plant response rating, Lambsquarters ([18]; 16 g ai/ha) | Plant response rating, Ragweed ([21]; 125 g ai/ha)
35: Plant response rating, Crabgrass, Large ([19]; 31 g ai/ha)
70: Plant response rating (0 to 100 scale, 0 no effect, 100 complete control), Foxtail, Giant ([3]; 31 g ai/ha) | Plant response rating (0 to 100 scale, 0 no effect, 100 complete control), Pigweed ([14]; 31 g ai/ha)
